Laboratory results reported in US12491226B2, “Mastic-derived natural protectants” (BARENTZ NORTH AMERICA, LLC, priority 2018, dated 2025).

What was measured:
mixture of bacteria = assay: CTFA Preservative Challenge Test on shampoo, mixed bacteria (with Kull synergism calculation); format: cell-based; conditions: for Mixed Bacteria Day 14 Count / Mixed Bacteria Day 7 Count: shampoo containing sample, initial count 4×10^6 cfu/mL; for Mixed Bacteria Day 14 Count: surviving organisms on day 14; for Mixed Bacteria Day 14 kill reduction / Mixed Bacteria Day 7 kill reduction: shampoo, versus initial count 4×10^6 cfu/mL; for Mixed Bacteria Day 7 Count: surviving organisms on day 7
Method: (§1) The CTFA Preservative Challenge Test was performed on a shampoo containing the samples below against a mixture of fungi (C. albicans (ATCC #10231) and A. brasiliensis (ATCC #16404)) having an initial count of 7.9×10^5 cfu/mL or a mixture of bacteria having an initial count of 4×10^6 cfu/mL. The shampoos inoculated with bacteria were allowed to stand for 14 days and the shampoos inoculated with fungi were allowed to stand for 7 days. The samples were evaluated for surviving organisms on day 7 for fungi-innoculated shampoos and days 7 and 14 for bacteria-innoculated shampoos.
From the table, synergism for the combinations above against mixed bacteria in shampoo was calculated by the method described in C. E. Kull et al., “Mixtures of Quaternary Ammonium Compounds and Long-chain Fatty Acids as Antifungal Agents”, Applied Microbiology, 9:538-541 (1961). The synergism value (QA/Qa+QB/Qb) was determined. […] Qa is the concentration of the first component alone (in percent by weight) required to yield 100% retardation of the bacteria. Qb is the concentration of the second component alone (in percent by weight) required to yield 100% retardation of the bacteria. When the value of (QA/Qa+QB/Qb) is less than one, the mixture is synergistic. Values for (QA/Qa+QB/Qb) of 1 and greater represent an additive effect and an antagonistic effect, respectively. Here, (QA/Qa+QB/Qb) is (([…])+([…]) or <0.75. Accordingly, the mixture of 0.2% mastic oil and 0.05% piroctine olamine is synergistic. The mixture of 2% mastic water and 2% ELA, the mixture of 2% mastic water and 0.5% sodium p-anisate, and the mixture of 4% mastic water and 1% quinic acid are also synergistic.

[1] = test system: mixture of fungi (C. albicans (ATCC #10231) and A. brasiliensis (ATCC #16404)); assay: CTFA Preservative Challenge Test on shampoo, mixed fungi; format: cell-based; conditions: for Mixed Fungi Day 7 Count: shampoo containing sample, initial count 7.9×10^5 cfu/mL, surviving organisms on day 7; for Mixed Fungi Day 7 kill reduction: shampoo, versus initial count 7.9×10^5 cfu/mL
Method: as §1

Compound | Mixed Bacteria Day 14 Count (mixture of bacteria) | Mixed Bacteria Day 14 kill reduction (mixture of bacteria) | Mixed Bacteria Day 7 Count (mixture of bacteria) | Mixed Bacteria Day 7 kill reduction (mixture of bacteria) | Mixed Fungi Day 7 Count [1] | Mixed Fungi Day 7 kill reduction [1]
CCCCCCCCCCCC(=O)N[C@@H](CCCN=C(N)N)C(=O)OCC.Cl [5% ELA HCl, ethyl lauroyl arginate HCl] | 1.3 × 10^2 cfu/mL | (<99.9% kill | – | – | – | –
COc1ccc(C(=O)[O-])cc1.[Na+] [1% Sodium p-anisate, sodium p-anisate] | – | – | 2.3 × 10^4 cfu/mL | (<99% kill | – | –
Cc1cc(CC(C)CC(C)(C)C)n(O)c(=O)c1.NCCO (stereo not drawn) [0.1% Piroctine olamine, Piroctine olamine] | 1.3 × 10^5 cfu/mL | (<97% kill | 1.2 × 10^5 cfu/mL | (<97% kill | 5.9 × 10^4 cfu/mL | (<90% kill
O=C(O)[C@]1(O)C[C@@H](O)[C@@H](O)[C@H](O)C1 [2.5% Quinic acid, quinic acid] | – | – | – | – | 1.4 × 10^5 cfu/mL | (<90% kill
